Experiments:
[1] = system: MAO; assay: MAO activity assay (total MAO); assay type: biochemical; conditions: for Inhibition Rate for MAO: compounds concentration 100 µM
Method: (§1) The enzyme activity analysis was performed according to the procedure reported by Matsumoto et al. with slight modifications. All materials used in the enzymatic assays were purchased from Aladdin Reagent Chemicals. […] The concentrations of the synthesized compounds altered from 0.001 µM to 100 µM for the MAO-A and -B enzyme activity inhibition. […] The enzymatic reactions were caused by the addition of MAO-A (40 µg/mL) or MAO-B (20 µg/mL), and cultured at 37 °C for 30 min. The enzyme reactions were stopped through the addition of 2N NaOH for 75 µL. […] The inhibitory effect of enzyme activity was calculated as a percentage of product formation compared to the corresponding control with no inhibitor. A control was established to determine the interference of the tested compounds to the fluorescence assay, and the enzyme or substrate was added after the reaction stopped.

[2] = target: BChE (Homo sapiens, UniProt P06276); assay: biochemical; conditions: compounds concentration 100 µM; read-out: Inhibition Rate BChE
BChE, sequence (P06276 29-602): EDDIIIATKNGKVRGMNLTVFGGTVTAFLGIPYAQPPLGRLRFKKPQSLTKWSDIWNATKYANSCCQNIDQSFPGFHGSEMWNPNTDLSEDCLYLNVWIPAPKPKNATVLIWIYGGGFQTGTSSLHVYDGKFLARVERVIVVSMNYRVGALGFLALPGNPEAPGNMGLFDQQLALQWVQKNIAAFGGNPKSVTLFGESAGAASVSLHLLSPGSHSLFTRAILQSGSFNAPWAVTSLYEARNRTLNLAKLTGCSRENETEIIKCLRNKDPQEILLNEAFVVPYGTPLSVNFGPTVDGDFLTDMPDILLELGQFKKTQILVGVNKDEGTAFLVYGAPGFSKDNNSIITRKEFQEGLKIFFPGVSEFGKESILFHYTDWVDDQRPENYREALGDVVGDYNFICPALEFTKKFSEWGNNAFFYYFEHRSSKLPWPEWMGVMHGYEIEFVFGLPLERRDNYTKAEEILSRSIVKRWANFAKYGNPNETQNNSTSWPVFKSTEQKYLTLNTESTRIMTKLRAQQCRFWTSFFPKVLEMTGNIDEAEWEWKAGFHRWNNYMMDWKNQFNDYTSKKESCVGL
Method: Inhibition of AChE and BChE was measured through the spectrophotometric method developed by Ellman’s method with slight modifications. The analysis protocol contained 96-well plates (100 µL per well). Each well involved 20 µL of assay buffer solution, 20 µL of the test sample, and 40 µL of 0.2 U/mL of AChE or BChE. The mixture was incubated for 10 min at 25 °C followed by the addition of substrate (20 µL). For AChE inhibition assay, acetylthiocholine iodide (ATCI, 0.001 mol/L), while for BChE assay, butyrylthiocholine chloride (BTCCl, 0.001 mol/L) was added to it. The mixture was incubated at 37 °C for 15 min. Ellman reagent (5,5′-dithio-bis(2-nitrobenzoic acid), DTNB, 0.001 mol/L) was added. […] The blank analysis was performed. All the analyses were performed in triplicate. Inhibition rate of experimental sample or positive control group (%) = [(control group-blank background)-(experimental sample or positive control group -sample background)]/(control-blank background) × 100%.

[3] = target: T1, MAO-A (Homo sapiens, UniProt P21397); assay: MAO activity assay, MAO-A; assay type: biochemical
T1 construct: purchased Aladdin Reagent Chemicals
T1 sequence (P21397 1-527): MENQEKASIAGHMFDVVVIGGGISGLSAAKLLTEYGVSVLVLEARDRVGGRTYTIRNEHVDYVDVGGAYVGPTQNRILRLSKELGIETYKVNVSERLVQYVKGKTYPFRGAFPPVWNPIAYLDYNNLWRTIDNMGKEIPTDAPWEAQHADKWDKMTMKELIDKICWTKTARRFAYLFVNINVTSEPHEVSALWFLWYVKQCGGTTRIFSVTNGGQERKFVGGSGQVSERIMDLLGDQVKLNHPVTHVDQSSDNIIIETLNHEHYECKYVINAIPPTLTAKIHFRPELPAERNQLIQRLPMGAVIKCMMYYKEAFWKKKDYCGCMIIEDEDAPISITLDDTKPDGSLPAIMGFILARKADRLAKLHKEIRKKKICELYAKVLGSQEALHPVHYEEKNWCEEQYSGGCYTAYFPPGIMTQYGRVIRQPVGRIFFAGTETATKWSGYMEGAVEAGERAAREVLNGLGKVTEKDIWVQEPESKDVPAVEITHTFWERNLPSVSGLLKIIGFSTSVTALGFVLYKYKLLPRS
Method: as §1

[4] = target: T2, MAO-B (Homo sapiens, UniProt P27338); assay: MAO activity assay, MAO-B; assay type: biochemical
T2 construct: purchased Aladdin Reagent Chemicals
T2 sequence (P27338 1-520): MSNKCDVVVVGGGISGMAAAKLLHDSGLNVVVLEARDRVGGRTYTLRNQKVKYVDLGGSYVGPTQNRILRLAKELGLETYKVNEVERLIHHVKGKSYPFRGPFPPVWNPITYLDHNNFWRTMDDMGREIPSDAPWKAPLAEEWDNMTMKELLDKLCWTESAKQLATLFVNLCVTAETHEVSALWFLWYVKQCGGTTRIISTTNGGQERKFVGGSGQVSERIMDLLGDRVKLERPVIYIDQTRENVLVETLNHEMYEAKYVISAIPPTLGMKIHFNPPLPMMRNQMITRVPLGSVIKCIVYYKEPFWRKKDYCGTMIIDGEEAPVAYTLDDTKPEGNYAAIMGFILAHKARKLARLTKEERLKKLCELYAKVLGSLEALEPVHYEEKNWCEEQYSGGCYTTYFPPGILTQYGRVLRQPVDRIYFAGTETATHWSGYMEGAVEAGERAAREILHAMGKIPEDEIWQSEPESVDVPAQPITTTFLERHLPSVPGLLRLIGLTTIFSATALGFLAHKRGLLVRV
Method: as §1

[5] = MTT cytotoxicity test; assay type: cell-based; conditions: mouse; L929 cells, compared with the blank control, 3.125 to 100 μM
Method: (§2) L929 cells in the logarithmic growth phase were selected, and the cell density was adjusted to 2 × 10^4 per well by a cell counter. The 96-well plate was inoculated in a 96-well plate, and the 96-well plate inoculated with cells was cultured in a 37 °C 5% carbon dioxide cell incubator for 24 h. Then, the medium containing 100 μM of the compound to be tested was added (the blank group was added to the medium without drug), shaken gently, and placed in a 5% carbon dioxide cell incubator at 37 °C for 24 h. Each concentration was repeated for […].
(§3) The assay detects live cells, but not dead cells, and the resulting signal depends on how activated the cells are. […] Therefore, MTT has been used to establish quantitative colorimetric assays for mammalian cell survival and proliferation. Therefore, this method can be used to measure cytotoxicity, proliferation, or activation. After 24 h, 20 μL of […] MTT solution (prepared in PBS with pH 7.6) was added in the dark, and cultured in a cell incubator for another 4 h. After 4 h, the 96 plate was taken out to discard the original medium, and 160 μL of DMSO was added, placed on a shaker, and mixed for about 10 min. Then, a microplate reader was used to measure its absorbance at 490 nm, and the results were recorded and analyzed.

[6] = system: L929 cells; assay: MTT cytotoxicity test; assay type: cell-based; conditions: MTT, 3.125 to 100 μM
Method: as §2, §3

[7] = system: L929 cells; assay: AO fluorescent staining cell viability; assay type: cell-based; conditions: 100 μM, compared with the control group
Method: Using the AO Fluorescent Staining Kit, AO is a tricyclic heteroaromatic dye that can penetrate cells with intact cell membranes and embed nuclear DNA, making them emit bright green fluorescence. L929 cells were selected from the logarithmic growth phase, and the cell density was adjusted to 8 × 10^5 per well with a cell counter to inoculate in a 6-well plate, and the 6-well plate was placed in a 37 °C 5% carbon dioxide cell incubator for 12 h. It grew completely adhering to the wall. After 12 h, 1 mL of medium containing 100 μM of the compound to be tested was added (for the blank group, drug-free medium was added), shaken gently, and placed in a 5% carbon dioxide cell incubator at 37 °C for 12 h. After 12h, the medium was discarded, PBS was added to wash once, 1 mL of PBS and 80 μL of AO solution (prepared according to the kit instructions) were slowly added in the dark, and mixed for 5 min to make the staining uniform and sufficient. The staining was aspirated after 5 min, washed 1–2 times with PBS, and observed under a fluorescence microscope, the results were recorded and analyzed.

SMILES: O=C(NCc1ccccc1C(F)(F)F)N1CCc2ccccc2C1c1ccccc1 (stereo in doubt) [2k, (S)-N-(o-(trifluoromethyl)benzyl)-1-phenyl-3,4-dihydroisoquinoline-2(1H)-carboxa-mide]
- Inhibition Rate for MAO [1]: 33.0%

SMILES: O=C(NCc1cccc(C(F)(F)F)c1)N1CCc2ccccc2C1c1ccccc1 (stereo in doubt) [2l, (S)-N-(m-(trifluoromethyl)benzyl)-1-phenyl-3,4-dihydroisoquinoline-2(1H)-carbox-amide]
- inhibition at 100 µM [2]: 49.1%

SMILES: O=C(NCc1ccc(C(F)(F)F)cc1)N1CCc2ccccc2C1c1ccccc1 (stereo in doubt) [2m, (S)-N-(p-(trifluoromethyl)benzyl)-1-phenyl-3,4-dihydroisoquinoline-2(1H)-carboxa-mide]
- Inhibition Rate for MAO [1]: 35.8%

SMILES: O=C(NCc1ccccc1OC(F)(F)F)N1CCc2ccccc2C1c1ccccc1 (stereo in doubt) [2n, (S)-N-(o-(trifluoromethoxy)benzyl)-1-phenyl-3,4-dihydroisoquinoline-2(1H)-carbox-amide]
- Inhibition Rate for MAO [1]: 33.0%

SMILES: O=C(NCc1ccc(OC(F)(F)F)cc1)N1CCc2ccccc2C1c1ccccc1 (stereo in doubt) [2o, (S)-N-(p-(trifluoromethoxy)benzyl)-1-phenyl-3,4-dihydroisoquinoline-2(1H)-carbox-amide]
- Inhibition Rate for MAO [1]: 31.1%

SMILES: O=C(NCc1ccc(F)cc1F)N1CCc2ccccc2[C@@H]1c1ccccc1 [2aa, (S)-N-(2,4-difluorobenzyl)-1-phenyl-3,4-dihydroisoquinoline-2(1H)-carboxamide]
- Inhibition Rate for MAO [1]: 32.1%

SMILES: O=C(NCc1c(F)cccc1F)N1CCc2ccccc2[C@@H]1c1ccccc1 [2ab, (S)-N-(2,6-difluorobenzyl)-1-phenyl-3,4-dihydroisoquinoline-2(1H)-carboxamide]
- Inhibition Rate for MAO [1]: 33.0%
- inhibition at 100 µM [2]: 24.9%

SMILES: N#Cc1ccc(CNC(=O)N2CCc3ccccc3[C@@H]2c2ccccc2)cc1 [2ac, (S)-N-(p-cyanobenzyl)-1-phenyl-3,4-dihydroisoquinoline-2(1H)-carboxamide]
- inhibition at 100 µM [2]: 17.7%

SMILES: O=C(NCc1ccccc1F)N1CCc2ccccc2[C@@H]1c1ccccc1 [2b, (S)-N-(o-fluorobenzyl)-1-phenyl-3,4-dihydroisoquinoline-2(1H)-carboxamide]
- inhibition at 100 µM [2]: 49%

SMILES: O=C(NCc1ccc(F)cc1)N1CCc2ccccc2[C@@H]1c1ccccc1 [2d, (S)-N-(p-fluorobenzyl)-1-phenyl-3,4-dihydroisoquinoline-2(1H)-carboxamide]
- IC50 [1]: 5.78 µM
- IC50 [3]: 1380 nM
- IC50 [4]: > 100 µM
- viability at 24 h [5]: > 90%
- cytotoxicity against L929 cells [6]: no obvious cytotoxicity
- toxicity toward L929 cells (AO fluorescence staining) [7]: no significant toxicity

SMILES: O=C(NCc1ccccc1Cl)N1CCc2ccccc2[C@@H]1c1ccccc1 [2e, (S)-N-(o-chlorobenzyl)-1-phenyl-3,4-dihydroisoquinoline-2(1H)-carboxamide]
- Inhibition Rate for MAO [1]: 41.4%

SMILES: O=C(NCc1cccc(Cl)c1)N1CCc2ccccc2[C@@H]1c1ccccc1 [2f, (S)-N-(m-chlorobenzyl)-1-phenyl-3,4-dihydroisoquinoline-2(1H)-carboxamide]
- inhibition at 100 µM [2]: 3.4%

SMILES: O=C(NCc1ccc(Cl)cc1)N1CCc2ccccc2[C@@H]1c1ccccc1 [2g, (S)-N-(p-chlorobenzyl)-1-phenyl-3,4-dihydroisoquinoline-2(1H)-carboxamide]
- Inhibition Rate for MAO [1]: 21.2%

SMILES: Cc1cccc(CNC(=O)N2CCc3ccccc3[C@@H]2c2ccccc2)c1 [2q, (S)-N-(m-methylbenzyl)-1-phenyl-3,4-dihydroisoquinoline-2(1H)-carboxamide]
- inhibition at 100 µM [2]: 8.7%

SMILES: COc1ccccc1CNC(=O)N1CCc2ccccc2[C@@H]1c1ccccc1 [2s, (S)-N-(o-methoxybenzyl)-1-phenyl-3,4-dihydroisoquinoline-2(1H)-carboxamid]
- inhibition at 100 µM [2]: 39.6%

SMILES: COc1ccc(CNC(=O)N2CCc3ccccc3[C@@H]2c2ccccc2)cc1 [2u, (S)-N-(p-methoxybenzyl)-1-phenyl-3,4-dihydroisoquinoline-2(1H)-carboxamide]
- inhibition at 100 µM [2]: 40.7%

SMILES: COc1ccc(CNC(=O)N2CCc3ccccc3[C@@H]2c2ccccc2)cc1OC [2w, (S)-N-(3,4-dimethoxybenzyl)-1-phenyl-3,4-dihydroisoquinoline-2(1H)-carboxamide]
- inhibition at 100 µM [2]: 9.4%

SMILES: O=C(NCc1ccc(Cl)cc1Cl)N1CCc2ccccc2[C@@H]1c1ccccc1 [2x, (S)-N-(2,4-dichlorobenzyl)-1-phenyl-3,4-dihydroisoquinoline-2(1H)-carboxamide]
- Inhibition Rate for MAO [1]: 44.7%

SMILES: O=C(NCc1c(Cl)cccc1Cl)N1CCc2ccccc2[C@@H]1c1ccccc1 [2y, (S)-N-(2,6-dichlorobenzyl)-1-phenyl-3,4-dihydroisoquinoline-2(1H)-carboxamide]
- Inhibition Rate for MAO [1]: 37.7%

SMILES: O=C(NCc1ccc(Cl)c(Cl)c1)N1CCc2ccccc2[C@@H]1c1ccccc1 [2z, (S)-N-(3,4-dichlorobenzyl)-1-phenyl-3,4-dihydroisoquinoline-2(1H)-carboxamide]
- Inhibition Rate for MAO [1]: 7.40%
- inhibition at 100 µM [2]: 12.1%

SMILES: C#CCN[C@@H]1CCc2ccccc21 [Rasagiline, reference compound]
- IC50 [1]: 0.338 µM
- Inhibition Rate for MAO [1]: 91.75%

Reference: PMC9967051, “(S)-N-Benzyl-1-phenyl-3,4-dihydroisoqunoline-2(1H)-carboxamide Derivatives, Multi-Target Inhibitors of Monoamine Oxidase and Cholinesterase: Design, Synthesis, and Biological Activity” (Molecules, 2023)
